Patent publication US12006330B2, “Substituted macrocyclic compounds and related methods of treatment” (Alkermes, Inc., priority 2020, dated 2024)

Key:
Assay type in all cases: in vitro ADME
[1] = tested on: MDR1; assay: MDCK-MDR1 permeability assay; conditions: dog, MDCK-MDR1, MDCK-MDR1 cells; for efflux ratio at 2 h, 3 μM: Papp B→A divided by Papp A→B, read-out: Efflux ratio (ER); for Papp A→B at 2 h, 3 μM: test compound 3 μM, 2 hours at 37 degrees C, apical to basolateral
Description: The bidirectional permeability (Apical to Basal and Basal to Apical directions) of test compounds in MDCK-MIDR1 cells were evaluated using MDCK-MIDR1 cells seeded in Solvo PreadyPort™ MDCK 96-well plate. Once the plate was received from ReadyCell (Barcelona, Spain), it was treated as per PreadyPort™ user's manual.
For the Apical to Basolateral (A→B) permeability, 80 μL of test compound (3 μM) co-dosed with LY (Lucifer Yellow) (100 μM) in HBSS (Hank's Balanced Salt Solution) assay buffer was added to the donor side (A) while 250 μL of HBSS buffer was added to the receiver side (B). For the Basolateral to Apical (B→A) permeability, 255 μL of test compound (3 μM) in HBSS assay buffer was added to the donor side (B) while 75 μL of HBSS buffer containing LY (100 μM) was added to the receiver side (A).
The plate was placed in an incubator set at 37 degrees C. After 10 minutes of pre-warming, 5 μL aliquot was taken from donor compartment and set aside as the dosing solution. The MDCK-MDR1 incubation plate was placed back into the incubator for 2 hours of incubation at 37 degrees C. After 2 hours of incubation, 25 μL and 5 μL aliquots were removed from the receiver and donor sides, respectively. To the 5 μL aliquots taken from the donor sides (before and after a 2-hour incubation) were diluted with 20 μL of the HBSS buffer. All samples were mixed with 150 μL with acetonitrile containing internal standard (IS) and 200 μL water, and analyzed by LC-MS/MS.
The apparent permeability (Papp) was calculated using the following formula: Papp=dQ/dt×1/A×C0 where: • dQ/dt: amount of translocated material over incubation time (nmol/s) • A: area of insert (0.14 cm^2 for PreadyPort™ MDR1-96) • C0: initial concentration of product applied in apical (A→B) or basal (B→A) compartment (nmol/mL)
The efflux ratio (ER) was measured by dividing the Papp (basolateral to apical direction) by Papp (apical to basolateral direction). It is a general measure of the involvement of active processes. An ER>2 is considered positive for active transport.
Percent recovery was measured using the following equation:
[formula] where: • VR: Volume of the receiver compartment (mL) • VD: Volume of the donor compartment (mL) • CN: Concentration of dosing solution (μM) collected after 10 minutes of incubation • CR^final: Receiver concentration at the end of the incubation (μM) • CD^final: Donor concentration at the end of the incubation (μM)
The data reported in Table 3 were obtained according to the MDCK-MDR1 permeability assay described above.

[2] = tested on: human hepatocytes; assay: Hepatocytes stability assay (human hepatocytes); conditions: human hepatocytes; scaled hepatic clearance divided by liver blood flow (well-stirred model, fu assumed unity)
Description: (§1) In vitro metabolic stability was assessed using cryopreserved hepatocytes from male Sprague Dawley rats and a pool of 50 mixed gender humans (BioIVT, Baltimore, MD). The incubation mixtures were prepared by mixing 250 μL of pre-warmed KHB (Krebs-Henseleit buffer) containing 2×10^6 cell/mL of hepatocytes with 250 μL of pre-warmed KHB buffer containing 2 μM of test compounds in a 48-well plate, giving a final concentration of 1 μM test compound (0.1% DMSO) and 1×10^6 cell/mL of hepatocytes. The reaction mixture was incubated at 37 degrees C. A 50 μL aliquot of incubation mixture was taken at time points (0, 15, 30, 60, 120 and 240 minutes) and transferred into a 96-well plate containing 300 μL ice-cold acetonitrile (containing 30 ng/mL of labetalol and 10 ng/mL of Naltrexone-d3 as internal standards) and immediately placed in ice to terminate the reaction. Samples were centrifuged, and supernatants were transferred into 96-well plates for liquid chromatography with tandem mass spectrometry (LC-MS/MS) analysis to monitor the depletion of the test compound.
(§2) Data was calculated as percent remaining by assuming zero-minute time point peak area ratio (analyte/IS) as 100% and dividing remaining time point peak area ratios by zero-minute time point peak area ratio. Data were fitted to a first-order decay model to determine half-life. From a plot of log (ln) peak area against time, the slope of the line was determined. Subsequently, half-life (T1/2) and intrinsic clearance (CLint) were calculated using the equations below: Elimination rate constant (k)=(−slope) Half-life (T1/2) min=0.693/k Intrinsic Clearance (CLint) (mL/min/million cells)=(V×0.693)/T1/2 V=incubation volume mL/number of cells The in vitro T1/2 was converted to in vitro intrinsic clearance (CLint,hep) in units of mL/min/kg using the formula shown below:
(§3) [formula] The in vitro intrinsic clearance (CLint,hep) was scaled to in vivo hepatic clearance (CL,hep) using the following equation which was adapted from a well-stirred model.
(§4) [formula] where Q is the liver blood flow and fu is the fraction unbound (assumed to be unity in this case). All parameters used in the calculation are shown below (Table 4).
(§5) The extraction ratio (ER) was calculated by dividing the hepatic clearance of a compound to the liver blood flow. The data reported in Table 5 were obtained according to the human hepatocytes stability assay described above.

[3] = Hepatocytes stability assay (human hepatocytes); conditions: both sexes, human, cryopreserved hepatocytes, cryopreserved human hepatocytes (pool of 50 mixed gender); 1 μM test compound; 1×10^6 cell/mL; 37 degrees C; read-out: CLint (μL/min/million cells)
Description: as §1, §2, §3, §4, §5

Compound	efflux ratio at 2 h, 3 μM [1]	Papp A→B at 2 h, 3 μM [1] [×10⁻⁶ cm/s]	Extraction Ratio (ER) [2]	hepatocyte CLint at 1 μM [3] [µL/min/1e6 cells]
Cc1cccc2c1C1CCC(CC1)OC[C@H]1[C@@H](NS(=O)(=O)C3CC3)CCCN1C(=O)CO2 (stereo in doubt) [Compound 4]	31	0.66	0.81	29
C=CS(=O)(=O)N[C@H]1CCCN2C(=O)COc3ccccc3C3CCC(CC3)OC[C@@H]12 (stereo in doubt) [Compound 5]	29	1.3	0.77	22
O=C1COc2ccccc2C2CCC(CC2)OC[C@H]2[C@@H](NS(=O)(=O)CF)CCCN12 (stereo in doubt) [Compound 6]	35	1	0.73	18
O=C1COc2ccccc2C2CCC(CC2)OC[C@H]2[C@@H](NS(=O)(=O)C(F)F)CCCN12 (stereo in doubt) [Compound 7]	22	1.4	0.74	19
CC1(S(=O)(=O)N[C@H]2CCCN3C(=O)COc4ccccc4C4CCC(CC4)OC[C@@H]23)CC1 (stereo in doubt) [Compound 8]	3.6	1.8	0.82	31
Cc1cccc2c1C1CCC(CC1)OC[C@H]1[C@@H](NS(=O)(=O)C(C)C)CCCN1C(=O)CO2 (stereo in doubt) [Compound 9]	50	0.87	0.83	32
Cc1ccc2c(c1)C1CCC(CC1)OC[C@H]1[C@@H](NS(=O)(=O)C3CC3)CCCN1C(=O)CO2 (stereo in doubt) [Compound 13]	72	0.35	0.48	6.3
O=C1COc2ncccc2C2CCC(CC2)OC[C@H]2[C@@H](NS(=O)(=O)C3CC3)CCCN12 (stereo in doubt) [Compound 14]	> 100	0.3	0.75	20
O=C1COc2ccc(Cl)cc2C2CCC(CC2)OC[C@H]2[C@@H](NS(=O)(=O)C3CC3)CCCN12 (stereo in doubt) [Compound 16]	> 100	0.2	0.47	6.1
Cc1ccc2c(c1)C1CCC(CC1)OC[C@H]1[C@@H](NS(=O)(=O)C(C)C)CCCN1C(=O)CO2 (stereo in doubt) [Compound 18]	19	0.83	0.46	5.8
O=C1COc2ccccc2C2CCC(CC2)OC[C@H]2[C@@H](NS(=O)(=O)CCO)CCCN12 (stereo in doubt) [Compound 19]	> 100	< 0.092	0.50	6.6
CC(C)S(=O)(=O)N[C@H]1CCCN2C(=O)COc3ccc(Cl)cc3[C@H]3CC[C@H](CC3)OCC12 (stereo in doubt) [Compound 26]	> 100	< 0.12	0.43	5.1
Cc1c(Cl)ccc2c1[C@H]1CC[C@H](CC1)OCC1[C@@H](NS(=O)(=O)C(C)C)CCCN1C(=O)CO2 (stereo in doubt) [Compound 28]	92	0.43	0.36	3.8
Cc1c(Cl)ccc2c1[C@H]1CC[C@H](CC1)OCC1[C@@H](NS(C)(=O)=O)CCCN1C(=O)CO2 (stereo in doubt) [Compound 31]	> 100	0.32	0.37	3.9
O=C1COc2ccccc2[C@H]2CC[C@H](CC2)OCC2[C@@H](NS(=O)(=O)C3CCCC3)CCCN12 (stereo in doubt) [Compound 33]	59	0.55	0.86	41
Cc1cnc2c(c1)[C@H]1CC[C@H](CC1)OCC1[C@@H](NS(=O)(=O)C(C)C)CCCN1C(=O)CO2 (stereo in doubt) [Compound 34]	67	0.44	0.52	7.1
CC(C)S(=O)(=O)N[C@H]1CCCN2C(=O)COc3ncc(Cl)cc3[C@H]3CC[C@H](CC3)OCC12 (stereo in doubt) [Compound 35]	81	0.35	0.70	16
Cc1cccc2c1OCC(=O)N1CCC[C@H](NS(C)(=O)=O)C1CO[C@H]1CC[C@@H]2CC1 (stereo in doubt) [Compound 37]	> 100	0.23	0.78	24
CN(C)CCS(=O)(=O)N[C@H]1CCCN2C(=O)COc3ccccc3[C@H]3CC[C@H](CC3)OCC12 (stereo in doubt) [Compound 39]	> 100	< 0.086	0.75	20
Cc1ccc2c(c1)OCC(=O)N1CCC[C@H](NS(C)(=O)=O)C1CO[C@H]1CC[C@@H]2CC1 (stereo in doubt) [Compound 40]	> 100	< 0.18	0.49	6.4
O=C1COc2ccccc2[C@H]2CC[C@H](CC2)OCC2[C@@H](NS(=O)(=O)C3CCC3)CCCN12 (stereo in doubt) [Compound 42]	7.4	0.92	0.84	36
O=C1COc2ccccc2[C@H]2CC[C@H](CC2)OCC2[C@@H](NS(=O)(=O)CC3CCC3)CCCN12 (stereo in doubt) [Compound 43]	10	0.96	0.89	55
CC(C)(C)S(=O)(=O)N[C@H]1CCCN2C(=O)COc3ccccc3[C@H]3CC[C@H](CC3)OCC12 (stereo in doubt) [Compound 44]	7.8	2	0.87	46
